{"source": "patent US20210340177A1", "about": "“BIOACTIVE PEPTIDES HAVING HIGH BINDING AFFINITY TO HUMAN MUSCULAR NICOTINIC ACETYLCHOLINE RECEPTOR” (priority 2020, published 2021)", "key": {"muscle cells": {"test_system": "muscle cells", "assay_type": "cell-based", "settings": "for Contraction of muscle cells after the washing step (reversibility): incubation for 24 hours followed by a washing step", "experimental": "The efficacy of peptides V0083091A (KKYK; SEQ ID NO: 1) and V0083092A (KWKK; […]. Muscle cells were incubated or treated without (control) or with compounds, for example, peptides V0083091A and V0083092A, and contraction of the muscle cells was evaluated after incubation for 5 hours, after incubation for 24 hours, or after incubation for 24 hours followed by a washing step."}, "[1]": {"test_system": "Human epidermal keratinocytes (HEKs)", "test": "MTT assay on human epidermal keratinocytes in in vitro cultures", "settings": "24 hours after treatment"}, "[2]": {"target": "human muscular nicotinic acetylcholine receptor (HmnAChR) (Homo sapiens, UniProt P02708+Q04844)", "sequence (P02708 21-457)": "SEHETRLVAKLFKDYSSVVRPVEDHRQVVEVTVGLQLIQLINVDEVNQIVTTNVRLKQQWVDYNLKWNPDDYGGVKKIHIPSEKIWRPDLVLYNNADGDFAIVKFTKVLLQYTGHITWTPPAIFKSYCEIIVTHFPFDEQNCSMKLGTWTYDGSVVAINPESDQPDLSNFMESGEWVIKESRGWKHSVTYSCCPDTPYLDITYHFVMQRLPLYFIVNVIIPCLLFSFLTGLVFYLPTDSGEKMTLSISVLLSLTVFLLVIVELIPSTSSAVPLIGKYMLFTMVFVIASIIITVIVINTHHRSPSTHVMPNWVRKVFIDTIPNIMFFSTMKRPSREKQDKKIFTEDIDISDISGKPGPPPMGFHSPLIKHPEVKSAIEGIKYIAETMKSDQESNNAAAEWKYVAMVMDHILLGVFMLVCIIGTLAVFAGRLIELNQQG", "sequence (Q04844 21-493)": "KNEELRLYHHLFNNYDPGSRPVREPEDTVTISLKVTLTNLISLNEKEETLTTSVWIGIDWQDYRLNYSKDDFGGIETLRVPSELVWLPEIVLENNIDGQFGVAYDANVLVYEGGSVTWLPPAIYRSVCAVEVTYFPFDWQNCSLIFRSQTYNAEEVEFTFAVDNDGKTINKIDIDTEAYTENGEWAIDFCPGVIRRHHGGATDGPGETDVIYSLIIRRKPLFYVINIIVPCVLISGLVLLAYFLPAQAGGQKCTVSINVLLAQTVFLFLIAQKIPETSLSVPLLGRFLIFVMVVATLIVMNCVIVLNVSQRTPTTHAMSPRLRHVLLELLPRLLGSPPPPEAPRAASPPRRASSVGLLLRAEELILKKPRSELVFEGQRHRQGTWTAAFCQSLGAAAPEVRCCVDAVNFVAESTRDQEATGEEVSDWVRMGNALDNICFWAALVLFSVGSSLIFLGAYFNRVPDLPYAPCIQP", "sequence (P11230 24-501 partner)": "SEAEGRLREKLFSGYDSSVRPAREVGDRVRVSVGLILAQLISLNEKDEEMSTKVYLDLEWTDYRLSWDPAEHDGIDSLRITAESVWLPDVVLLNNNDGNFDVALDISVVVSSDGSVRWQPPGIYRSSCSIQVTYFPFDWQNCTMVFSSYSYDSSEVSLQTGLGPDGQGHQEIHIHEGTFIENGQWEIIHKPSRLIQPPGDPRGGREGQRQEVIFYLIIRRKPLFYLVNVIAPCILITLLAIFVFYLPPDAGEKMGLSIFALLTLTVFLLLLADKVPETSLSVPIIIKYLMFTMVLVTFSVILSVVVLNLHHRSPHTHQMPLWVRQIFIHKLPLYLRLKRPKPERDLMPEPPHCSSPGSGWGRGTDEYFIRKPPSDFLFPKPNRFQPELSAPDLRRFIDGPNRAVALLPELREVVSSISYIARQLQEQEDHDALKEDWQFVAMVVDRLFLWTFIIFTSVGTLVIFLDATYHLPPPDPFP", "sequence (Q07001 22-517 partner)": "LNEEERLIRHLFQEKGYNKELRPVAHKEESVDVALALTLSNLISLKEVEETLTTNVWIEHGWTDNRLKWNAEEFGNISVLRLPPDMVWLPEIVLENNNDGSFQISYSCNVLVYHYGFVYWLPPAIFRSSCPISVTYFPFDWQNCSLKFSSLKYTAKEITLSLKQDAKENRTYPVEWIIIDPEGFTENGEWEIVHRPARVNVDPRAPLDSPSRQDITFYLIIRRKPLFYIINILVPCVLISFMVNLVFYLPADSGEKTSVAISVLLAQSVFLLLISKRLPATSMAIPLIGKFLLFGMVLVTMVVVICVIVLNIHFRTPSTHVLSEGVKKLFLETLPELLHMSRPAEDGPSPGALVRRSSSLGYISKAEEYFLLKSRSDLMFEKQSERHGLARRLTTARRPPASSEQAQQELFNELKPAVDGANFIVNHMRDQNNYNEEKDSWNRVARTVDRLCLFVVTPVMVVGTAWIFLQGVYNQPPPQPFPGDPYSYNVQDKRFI", "test": "Binding energy of peptides in the HmnAChR binding site over runs of genetic algorithm", "settings": "Table 3, difference of binding energies (no unit printed in Table 3)"}, "[3]": {"target": "human muscular nicotinic acetylcholine receptor (HmnAChR) (human)", "sequence (P02708 21-457, chain 1 of 4)": "as the sequence (P02708 21-457) above", "sequence (P11230 24-501, chain 2 of 4, further chain)": "as the sequence (P11230 24-501 partner) above", "sequence (Q07001 22-517, chain 3 of 4, further chain)": "as the sequence (Q07001 22-517 partner) above", "sequence (Q04844 21-493, chain 4 of 4, further chain)": "as the sequence (Q04844 21-493) above"}}}
{"compound": "C/C=C/C=C\\CC/C=C/C(=O)NCC(C)C", "note": "[spilanthol]", "values": [{"measurement": "Inhibition of contraction of muscle cells, effect size", "setting": "muscle cells; 1 μM or 10 μM, 5 or 24 hours after incubation, p value<5%", "value": "1.5-2"}, {"measurement": "Contraction of muscle cells after the washing step (reversibility)", "setting": "muscle cells", "value": "inhibitory effect was lost"}]}
{"compound": "Lys-Lys-Tyr-Lys [Peptide V0083091A]", "values": [{"measurement": "Inhibition effect on muscle cell contraction", "setting": "muscle cells; 1 μM, observable after incubation for 24 hours", "value": "much less inhibition effect"}, {"measurement": "Contraction of muscle cells after the washing step (reversibility)", "setting": "muscle cells", "value": "no clear recovery of the contraction power"}, {"measurement": "Proliferation of the HEKs", "setting": "[1]", "value": "induced proliferation"}]}
{"compound": "dipeptide diaminobutyroyl benzylamide diacetate [SYN ®-AKE]", "values": [{"measurement": "(Best Result − Average)", "setting": "[2]", "value": -3.01, "unit": "kcal/mol"}]}
{"compound": "peptide V0083091A (KKYK; SEQ ID NO: 1)", "values": [{"measurement": "Binding Energy, All 100 Average", "setting": "[3]", "value": -8.39, "unit": "kcal/mol"}, {"measurement": "Binding Energy, Best Result", "setting": "[3]", "value": -11.4, "unit": "kcal/mol"}, {"measurement": "Binding Energy, Top 10 Average", "setting": "[3]", "value": -10.2, "unit": "kcal/mol"}]}
